Assay results from patent US12351571B2, “Substituted quinoxaline compounds as inhibitors of FGFR tyrosine kinases” (ARRAY BIOPHARMA INC., priority 2018, dated 2025).

What was measured:
human wild type FGFR3 = human wild type FGFR3 (Homo sapiens (Human), UniProt P22607); test: FGFR3 pERK Cell Assay; format: cell-based; settings: HEK-293 cells, 1 hour compound, 100 ng/ml human FGF-acidic; maximum concentration 5 μM
Procedure: HEK-293 cells transfected with dox-inducible human wild type FGFR3 (SEQ ID NO: 5) were plated in a collagen or poly-D-lysine coated 96 well flat bottom plates at 4×10^5 cells/well in complete DMEM medium containing 10% FBS and 1 μg/ml doxycycline and allowed to attach for 24 h at 37° C., 5% CO2. Cells were treated with compound using 1:3 serial dilutions with a maximum final concentration of 5 μM. Compound was incubated on cells for 1 hour at 37° C., 5% CO2. Cells were then stimulated with a final concentration of 100 ng/ml human FGF-acidic (R&D Systems Cat number 232-FA/CF) for 5 minutes at 37° C., 5% CO2. Medium was removed, and cells were lysed with lysis buffer containing phosphatase and protease inhibitors. Phospho ERK1/2 was measured using the Meso Scale Discovery sandwich assay (Meso Scale Discovery cat. no. K151DWD). The assay captures phospho ERK1/2 and detects with a sulfo-tagged total ERK1/2 antibody. The chemiluminescent signal was read on the Sector Imager Plate reader. 100 POC was determined using no test compounds and 0 POC was determined using a control compound. The POC values were fit to a 4-parameter logistic curve as a function of the concentration of the compound, and the IC50 value is the point where the curve crosses 50 POC.

[1] = biological target: recombinant human FGFR1 catalytic domain (Homo sapiens (Human), UniProt P11362); test: FGFR Enzyme Activity Assay (LanthaScreen TR-FRET), FGFR1; format: biochemical; settings: 15 μM ATP, 20 minutes incubation; read-out: FGFR1 Enz FRET IC50
Procedure: FGFR1 kinase activity was measured by the Invitrogen LanthaScreen™ Assay technology which directly measures the amount of substrate phosphorylation by Time-resolved fluorescence energy transfer (TR-FRET) using a flourescently-labeled peptide and Europium-labeled antibody. Briefly, 200 pM His-tagged recombinant human FGFR1 catalytic domain (amino acids 308-731) (Life Technologies Cat. No. PR4660A) was incubated with 100 nM Alexa Fluor® 647-Poly-GT Peptide Substrate (Life Technologies Cat. No. PV5836) and 15 μM ATP along with test compound in a buffer consisting of 250 mM HEPES, 25 mM MgCl2, 0.05% TritonX-100, pH 7.5, and 2% DMSO. Compounds were typically prepared in a threefold serial dilution in DMSO and added to the assay to give the appropriate final concentration. After a 20 minutes incubation at 22° C., an equal volume of 2 nM LanthaScreen® Eu-PY20 Antibody (Life Technologies Cat. No. PV5691) and 10 mM EDTA was added to quench the kinase reaction and start the detection reaction. After an additional 60 minute incubation at 22° C., the reaction was measured using a PerkinElmer EnVision multimode plate reader via TR-FRET dual wavelength detection, and the percent of control (POC) calculated using a ratiometric emission factor. 100 POC was determined using no test compounds and 0 POC was determined using no enzyme. The POC values were fit to a 4-parameter logistic curve as a function of the concentration of the compound, and the IC50 value is the point where the curve crosses 50 POC.

FGFR3 [2] = biological target: T1, FGFR3 (Homo sapiens (Human), UniProt P22607); test: FGFR Enzyme Activity Assay (LanthaScreen TR-FRET), FGFR3; format: biochemical; settings: 25 μM ATP, 10 minute incubation; read-out: FGFR3 Enz FRET IC50
Procedure: FGFR3 kinase activity was measured by the Invitrogen LanthaScreen™ Assay technology which directly measures the amount of substrate phosphorylation by TR-FRET using a flourescently-labeled peptide and Europium-labeled antibody. Briefly, 750 pM N-terminal GST-HIS6 fusion protein with a 3C cleavage site recombinant human FGFR3 (amino acids R397-T806) (ProQinase Cat. No. 1068-0000-1) was incubated with 100 nM Alexa Fluor® 647-Poly-GT Peptide Substrate (Life Technologies Cat. No. PV5836) and 25 μM ATP along with test compound in a buffer consisting of 250 mM HEPES, 25 mM MgCl2, 0.05% TritonX-100, pH 7.5, and 2% DMSO. Compounds were typically prepared in a threefold serial dilution in DMSO and added to the assay to give the appropriate final concentration. After a 10 minute incubation at 22° C., an equal volume of 2 nM LanthaScreen® Eu-PY20 Antibody (Life Technologies Cat. No. PV5691) and 10 mM EDTA were added to quench the kinase reaction and start the detection reaction. After an additional 60 minute incubation at 22° C., the reaction was measured using a PerkinElmer EnVision multimode plate reader via TR-FRET dual wavelength detection, and the percent of control (POC) calculated using a ratiometric emission factor. 100 POC was determined using no test compounds and 0 POC was determined using no enzyme. The POC values were fit to a 4-parameter logistic curve as a function of the concentration of the compound, and the IC50 value is the point where the curve crosses 50 POC.
Target sequence in this assay (P22607 397-806): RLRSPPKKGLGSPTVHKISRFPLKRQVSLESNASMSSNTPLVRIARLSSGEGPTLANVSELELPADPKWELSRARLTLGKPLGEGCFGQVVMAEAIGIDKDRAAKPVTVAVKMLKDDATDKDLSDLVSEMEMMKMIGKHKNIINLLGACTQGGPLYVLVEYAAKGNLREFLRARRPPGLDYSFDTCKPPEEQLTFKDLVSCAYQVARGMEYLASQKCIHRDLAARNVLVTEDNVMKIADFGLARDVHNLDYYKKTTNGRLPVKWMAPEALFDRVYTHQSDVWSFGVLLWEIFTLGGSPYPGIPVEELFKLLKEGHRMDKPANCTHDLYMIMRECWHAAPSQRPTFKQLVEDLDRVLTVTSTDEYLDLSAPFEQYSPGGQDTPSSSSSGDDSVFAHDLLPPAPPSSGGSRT

FGFR3 [3] = biological target: T1, FGFR3; test: LC/MS FGFR3 kobs assay (covalent modification); format: biochemical; settings: 500 nM FGFR3, 3 μM compound
Procedure: (§1) The LC/MS FGFR1 and FGFR3 kobs assays were conducted as follows. 500 nM FGFR1 (Array BioPharma construct p1702; SEQ ID NO: 1, amino acids 458-765) or FGFR3 (Array BioPharma construct p1700; SEQ ID NO: 5, amino acids 449-759) were incubated with 3 μM compound in 25 mM HEPES (4-(2-hydroxyethyl)-1-piperazineethanesulfonic acid), pH 7.4, 5 mM MgCl2, 150 mM NaCl, 0.5 mM TCEP (tris(2-carboxyethyl) phosphine), and 2% DMSO in a total volume of 20 μL. At each time point, the reaction was quenched with 20 μL of 0.4% formic acid. The extent of protein modification by each compound was determined by LC/MS on an Agilent Technologies 6520 Q-TOF LC/MS. Protein signals were then automatically deconvoluted using Agilent Masshunter software. Deconvoluted mass signals were exported to Tibco Spotfire data analysis program for further processing and normalization.
(§2) Data analysis included five steps. First, the signals for the “DMSO Controls” were analyzed to determine the percent of signal associated with unmodified FGFR1 or FGFR3 at each time point. Next, the percent of the signal associated with the covalent modification was determined. Third, the average nonmodified “DMSO Control” signal was used to normalize the modified protein signals at each time point. The percent of unmodified protein was fit to an exponential decay model where A0 is the Percent Unmodified at the start of the reaction, and kobs is the observed rate constant over the time period.
Target sequence in this assay (P22607 449-759): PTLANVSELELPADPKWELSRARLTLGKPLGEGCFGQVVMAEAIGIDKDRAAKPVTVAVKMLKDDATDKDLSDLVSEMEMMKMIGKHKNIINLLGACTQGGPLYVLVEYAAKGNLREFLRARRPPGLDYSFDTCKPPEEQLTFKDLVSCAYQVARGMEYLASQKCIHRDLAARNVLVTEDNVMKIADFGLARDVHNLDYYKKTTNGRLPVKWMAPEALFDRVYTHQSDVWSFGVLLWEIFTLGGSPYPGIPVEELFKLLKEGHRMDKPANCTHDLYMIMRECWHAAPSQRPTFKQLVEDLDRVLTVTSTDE

FGFR1 = FGFR1 (Homo sapiens (Human), UniProt P11362); test: LC/MS FGFR1 kobs assay (covalent modification); format: biochemical; settings: 500 nM FGFR1, 3 μM compound
Procedure: as §1, §2

Sequence of human wild type FGFR3 (P22607 23-806): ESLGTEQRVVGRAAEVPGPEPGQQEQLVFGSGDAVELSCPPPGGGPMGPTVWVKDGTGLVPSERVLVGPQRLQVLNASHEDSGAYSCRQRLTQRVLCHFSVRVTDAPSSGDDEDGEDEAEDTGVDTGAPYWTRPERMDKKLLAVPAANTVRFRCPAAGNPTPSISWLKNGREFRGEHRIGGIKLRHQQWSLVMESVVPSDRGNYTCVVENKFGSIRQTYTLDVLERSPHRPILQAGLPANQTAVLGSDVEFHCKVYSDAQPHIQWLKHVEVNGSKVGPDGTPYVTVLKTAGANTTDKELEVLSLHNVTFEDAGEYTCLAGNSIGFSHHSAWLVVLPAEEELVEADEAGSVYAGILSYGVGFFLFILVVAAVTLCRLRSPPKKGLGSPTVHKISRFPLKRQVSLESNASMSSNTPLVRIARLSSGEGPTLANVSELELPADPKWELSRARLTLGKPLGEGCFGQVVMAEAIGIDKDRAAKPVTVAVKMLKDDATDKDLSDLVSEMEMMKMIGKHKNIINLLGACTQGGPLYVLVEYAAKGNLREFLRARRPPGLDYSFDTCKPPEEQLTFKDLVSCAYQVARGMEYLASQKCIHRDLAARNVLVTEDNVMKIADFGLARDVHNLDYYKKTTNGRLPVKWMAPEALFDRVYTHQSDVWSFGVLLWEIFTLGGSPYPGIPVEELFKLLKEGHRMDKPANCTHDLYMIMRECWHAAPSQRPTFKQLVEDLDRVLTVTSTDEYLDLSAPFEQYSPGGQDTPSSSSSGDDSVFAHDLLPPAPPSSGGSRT
Sequence of recombinant human FGFR1 catalytic domain (P11362 other isoform, or with tags, fused parts or gaps): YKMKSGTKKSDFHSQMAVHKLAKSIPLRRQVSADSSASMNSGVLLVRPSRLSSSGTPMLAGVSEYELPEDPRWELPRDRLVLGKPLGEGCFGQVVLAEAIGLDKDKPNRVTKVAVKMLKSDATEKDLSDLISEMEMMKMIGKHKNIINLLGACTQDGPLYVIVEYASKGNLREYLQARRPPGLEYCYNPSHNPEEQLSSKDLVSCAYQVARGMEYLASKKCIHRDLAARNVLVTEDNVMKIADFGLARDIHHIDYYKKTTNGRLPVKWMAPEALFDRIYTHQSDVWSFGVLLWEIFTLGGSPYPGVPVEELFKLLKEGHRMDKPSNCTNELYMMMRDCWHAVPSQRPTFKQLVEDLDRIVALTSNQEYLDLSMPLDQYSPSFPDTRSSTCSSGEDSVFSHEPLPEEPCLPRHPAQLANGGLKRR
Sequence of FGFR1 (P11362 458-765): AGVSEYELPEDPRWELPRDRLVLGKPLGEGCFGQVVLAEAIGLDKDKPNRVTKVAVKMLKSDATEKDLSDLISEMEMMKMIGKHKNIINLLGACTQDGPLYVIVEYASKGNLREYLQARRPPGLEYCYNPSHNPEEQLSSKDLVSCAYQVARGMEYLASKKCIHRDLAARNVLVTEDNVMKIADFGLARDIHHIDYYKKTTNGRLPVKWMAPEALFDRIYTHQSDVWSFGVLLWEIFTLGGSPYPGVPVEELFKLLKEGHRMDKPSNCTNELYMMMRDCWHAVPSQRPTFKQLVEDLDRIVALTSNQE

SMILES	IC50 (human wild type FGFR3)	IC50 [1]	IC50 (FGFR3 [2])	FGFR3 Enz kobs (FGFR3 [3])	FGFR1 Enz kobs (FGFR1)
C=CC(=O)N1CC(F)(C(=O)N2CCC(n3cc(-c4cnc5ccc(Nc6cc(OC)cc(OC)c6)cc5n4)cn3)CC2)C1 [Example 4, 1-(3-(4-(4-(7-((3,5-dimethoxyphenyl)amino)-quinoxalin-2-yl)-1H-pyrazol-1-yl)piperidine-1-carbonyl)-3-fluoro-azetidin-1-yl)prop-2-en-1-one]	0.02 µM	0.089 µM	0.01 µM	0.03901 min⁻¹	0.00632 min⁻¹
C=CC(=O)N1CC(C(=O)N2CCN(c3ccc(-c4cnc5ccc(Nc6cc(OC)cc(OC)c6)cc5n4)cn3)CC2)C1 [Example 5, 1-(3-(4-(5-(7-((3,5-dimethoxyphenyl)amino)-quinoxalin-2-yl)pyridin-2-yl)piperazine-1-carbonyl)azetidin-1-yl)-prop-2-en-1-one]	0.317 µM	0.448 µM	0.272 µM	0.01486 min⁻¹	0.0011 min⁻¹
COc1cc(Nc2ccc3ncc(-c4ccc(N5CCN(C(=O)C6CN(C(=O)/C=C/CN(C)C)C6)CC5)nc4)nc3c2)cc(OC)c1 [Example 6, (E)-1-(3-(4-(5-(7-((3,5-dimethoxyphenyl)amino)-quinoxalin-2-yl)pyridin-2-yl)piperazine-1-carbonyl)azetidin-1-yl)-4-(dimethylamino)but-2-en-1-one]	0.228 µM	0.216 µM	0.161 µM	0.04816 min⁻¹	0.00259 min⁻¹
COc1cc(Nc2ccc3ncc(-c4ccc(N5CCN(C(=O)C6(F)CN(C(=O)/C=C/CN(C)C)C6)CC5)nc4C)nc3c2)cc(OC)c1 [Example 13, (E)-1-(3-(4-(5-(7-((3,5-dimethoxyphenyl)amino)-quinoxalin-2-yl)-6-methylpyridin-2-yl)-piperazine-1-carbonyl)-3-fluoroazetidin-1-yl)-4-(dimethylamino)but-2-en-1-one]		2.15 µM	1.83 µM	0.02606 min⁻¹	0.00293 min⁻¹
C=CC(=O)N1CC(C(=O)N2CCN(c3cccc(-c4cnc5ccc(Nc6cc(OC)cc(OC)c6)cc5n4)c3)CC2)C1 [Example 25, 1-(3-(4-(3-(7-((3,5-dimethoxyphenyl)amino)-quinoxalin-2-yl)phenyl)-piperazine-1-carbonyl)-azetidin-1-yl)prop-2-en-1-one]		1.77 µM	0.479 µM	0.00369 min⁻¹	0.00404 min⁻¹

The next compounds have a lower IC50 [1] than those just listed; values first:

IC50 (human wild type FGFR3)	IC50 [1]	IC50 (FGFR3 [2])	FGFR3 Enz kobs (FGFR3 [3])	FGFR1 Enz kobs (FGFR1)	SMILES
0.044 µM	0.054 µM	0.009 µM	0.00945 min⁻¹	0.00127 min⁻¹	C=CC(=O)N1CC(C(=O)N2CCC(n3cc(-c4cnc5ccc(Nc6cc(OC)cc(OC)c6)cc5n4)cn3)CC2)C1 [Example 1, 1-(3-(4-(4-(7-((3,5-dimethoxyphenyl)amino)quinoxalin-2-yl)-1H-pyrazol-1-yl)piperidine-1-carbonyl)azetidin-1-yl)prop-2-en-1-one]
0.207 µM	0.049 µM	0.01 µM	0.00302 min⁻¹	0.00038 min⁻¹	C=CC(=O)N1CC[C@@H](C(=O)N2CCC(n3cc(-c4cnc5ccc(Nc6cc(OC)cc(OC)c6)cc5n4)cn3)CC2)C1 [Example 2, (R)-1-(3-(4-(4-(7-((3,5-dimethoxyphenyl)amino)-quinoxalin-2-yl)-1H-pyrazol-1-yl)piperidine-1-carbonyl)pyrrolidin-1-yl)-prop-2-en-1-one]
0.135 µM	0.051 µM	0.01 µM	0.00166 min⁻¹		C=CC(=O)N1CCC(C(=O)N2CCC(n3cc(-c4cnc5ccc(Nc6cc(OC)cc(OC)c6)cc5n4)cn3)CC2)CC1 [Example 3, 1-(4-(4-(4-(7-((3,5-dimethoxyphenyl)amino)-quinoxalin-2-yl)-1H-pyrazol-1-yl)piperidine-1-carbonyl)piperidin-1-yl)prop-2-en-1-one]
